In paper PMC12377202, “Design, synthesis, and cytotoxic evaluation of quinazoline-based derivatives as VEGER-2 inhibitors: comparative study against EGFR kinase activity, induction of apoptosis, and molecular docking study” (RSC Advances, 2025):

Experiments:
Format in all cases: cell-based, human
caspase-9 = assay: Caspase-9 expression level in HepG-2 cells; conditions: for Caspase-9 ± SE: HepG-2, at IC50 concentrations, control 11.01
Procedure: (§1) All synthesized compounds were tested at their cytotoxic concentrations in HepG-2 cells for analysis of gene expression levels of apoptotic markers caspase-3, caspase-9, TNF-α, and IL-6 proteins, and only two active compounds were tested for BAX and Bcl-2 proteins.
(§2) through Flow cytometric analysis.
(§3) Pellets were collected again and incubated with
(§4) Total RNA from vehicle-treated
(§5) (Thermo Scientific, USA).
(§6) All experiments were performed in […]

HepG-2 = assay: MTT anti-proliferative assay, HepG-2; conditions: Homo sapiens, HepG2
TNF-alpha = TNF-alpha level in HepG-2 cells; conditions: control 43.48
Procedure: as §1, §2, §3, §4, §5, §6

MCF-7 = assay: MTT anti-proliferative assay, MCF-7; conditions: Homo sapiens, MCF7
K-562 = assay: MTT anti-proliferative assay, K-562; conditions: Homo sapiens, K562
IL-6R = IL-6R level in HepG-2 cells
Procedure: as §1, §2, §3, §4, §5, §6

caspase-3 = assay: Caspase-3 expression level in HepG-2 cells; conditions: for Caspase-3 ± SE: HepG-2, at IC50 concentrations, control 0.460
Procedure: as §1, §2, §3, §4, §5, §6

How did the “Caspase-9 ± SE” value (caspase-9) turn out when `O=C(Cn1cnc2cc(Cl)ccc2c1=O)Nc1ccc(Cl)cc1` [8c, 2-(7-Chloro-4-oxoquinazolin-3(4H)-yl)-N-(4-chlorophenyl)acetamide] was run?
Its value is 26.98 ± 1.30 ng/L.

And the “Caspase-9 ± SE” value (caspase-9; listed as R1)?
Its value is 26.98 ng/L.

What about the “caspase-9 expression level, fold increase” value (caspase-9; HepG-2, vs control cells) of the same compound?
Its value is 2.5 fold.

What about the viability at 0.195 µg/mL (HepG-2; HepG-2, 0.195 ug/ml) of the same compound?
The viability at 0.195 µg/mL was 89.2%.

What about the cytotoxicity at 0.195 µg/mL (HepG-2; HepG-2, 0.195 ug/ml, read-out: Toxicity %) of the same compound?
The cytotoxicity at 0.195 µg/mL was 10.8%.

What about the viability at 0.391 µg/mL (HepG-2; HepG-2, 0.391 ug/ml) of the same compound?
Its viability at 0.391 µg/mL is 65.9%.

And the cytotoxicity at 0.391 µg/mL (HepG-2; HepG-2, 0.391 ug/ml, read-out: Toxicity %)?
Its cytotoxicity at 0.391 µg/mL is 34.1%.

And the viability at 0.781 µg/mL (HepG-2; HepG-2, 0.781 ug/ml)?
Its viability at 0.781 µg/mL is 47.8%.

And the cytotoxicity at 0.781 µg/mL (HepG-2; HepG-2, 0.781 ug/ml, read-out: Toxicity %)?
Its cytotoxicity at 0.781 µg/mL is 52.2%.

And the viability at 1.563 µg/mL (HepG-2; HepG-2, 1.563 ug/ml)?
The viability at 1.563 µg/mL was 29.9%.

What about the cytotoxicity at 1.563 µg/mL (HepG-2; HepG-2, 1.563 ug/ml, read-out: Toxicity %) of the same compound?
The cytotoxicity at 1.563 µg/mL was 70.1%.

And the viability at 3.125 µg/mL (HepG-2; HepG-2, 3.125 ug/ml)?
The viability at 3.125 µg/mL was 15.9%.

What about the cytotoxicity at 3.125 µg/mL (HepG-2; HepG-2, 3.125 ug/ml, read-out: Toxicity %) of the same compound?
The cytotoxicity at 3.125 µg/mL was 84.1%.

What about the viability at 6.25 µg/mL (HepG-2; HepG-2, 6.25 ug/ml) of the same compound?
Its viability at 6.25 µg/mL is 11%.

And the cytotoxicity at 6.25 µg/mL (HepG-2; HepG-2, 6.25 ug/ml, read-out: Toxicity %)?
Its cytotoxicity at 6.25 µg/mL is 89%.

What about the viability at 12.5 µg/mL (HepG-2; HepG-2, 12.5 ug/ml) of the same compound?
The viability at 12.5 µg/mL was 7.66%.

What about the cytotoxicity at 12.5 µg/mL (HepG-2; HepG-2, 12.5 ug/ml, read-out: Toxicity %) of the same compound?
The cytotoxicity at 12.5 µg/mL was 92.3%.

And the viability at 25 µg/mL (HepG-2; HepG-2, 25 ug/ml)?
The viability at 25 µg/mL was 6.7%.

What about the cytotoxicity at 25 µg/mL (HepG-2; HepG-2, 25 ug/ml, read-out: Toxicity %) of the same compound?
The cytotoxicity at 25 µg/mL was 93.3%.

What about the IC50 (HepG-2; MTT, HepG-2, read-out: Cytotoxicity against cancer cells IC50 HepG-2) of the same compound?
Its IC50 is 734.4 ± 2.3 nM.

What about the “TNF-alpha ±SE” value (TNF-alpha; HepG-2, at IC50 concentrations) of the same compound?
Its value is 9.13 ± 0.37 ng/L.

What about the “TNF-alpha ±SE” value (TNF-alpha; raw data, HepG2) of the same compound?
Its value is 10.2 ng/L.

And the viability at 0.195 µmol (MCF-7; MCF-7, 0.195 umol)?
Its viability at 0.195 µmol is 46.1%.

What about the cytotoxicity at 0.195 µmol (MCF-7; MCF-7, 0.195 umol, read-out: Toxicity %) of the same compound?
Its cytotoxicity at 0.195 µmol is 53.9%.

What about the viability at 0.391 µmol (MCF-7; MCF-7, 0.391 umol) of the same compound?
The viability at 0.391 µmol was 32.9%.

And the cytotoxicity at 0.391 µmol (MCF-7; MCF-7, 0.391 umol, read-out: Toxicity %)?
Its cytotoxicity at 0.391 µmol is 67.1%.

What about the viability at 0.781 µmol (MCF-7; MCF-7, 0.781 umol) of the same compound?
The viability at 0.781 µmol was 20.3%.

And the cytotoxicity at 0.781 µmol (MCF-7; MCF-7, 0.781 umol, read-out: Toxicity %)?
Its cytotoxicity at 0.781 µmol is 79.7%.

What about the viability at 1.563 µmol (MCF-7; MCF-7, 1.563 umol) of the same compound?
Its viability at 1.563 µmol is 13.1%.

And the cytotoxicity at 1.563 µmol (MCF-7; MCF-7, 1.563 umol, read-out: Toxicity %)?
The cytotoxicity at 1.563 µmol was 86.9%.

And the viability at 3.125 µmol (MCF-7; MCF-7, 3.125 umol)?
The viability at 3.125 µmol was 10.2%.

What about the cytotoxicity at 3.125 µmol (MCF-7; MCF-7, 3.125 umol, read-out: Toxicity %) of the same compound?
The cytotoxicity at 3.125 µmol was 89.8%.

What about the viability at 6.25 µmol (MCF-7; MCF-7, 6.25 umol) of the same compound?
The viability at 6.25 µmol was 8.44%.

And the cytotoxicity at 6.25 µmol (MCF-7; MCF-7, 6.25 umol, read-out: Toxicity %)?
The cytotoxicity at 6.25 µmol was 91.6%.

And the viability at 12.5 µmol (MCF-7; MCF-7, 12.5 umol)?
The viability at 12.5 µmol was 8.05%.

And the cytotoxicity at 12.5 µmol (MCF-7; MCF-7, 12.5 umol, read-out: Toxicity %)?
The cytotoxicity at 12.5 µmol was 92%.

And the viability at 25 µmol (MCF-7; MCF-7, 25 umol)?
The viability at 25 µmol was 6.64%.

And the cytotoxicity at 25 µmol (MCF-7; MCF-7, 25 umol, read-out: Toxicity %)?
The cytotoxicity at 25 µmol was 93.4%.

And the IC50 (MCF-7; MTT, MCF-7, read-out: Cytotoxicity against cancer cells IC50 MCF-7)?
The IC50 was 188 ± 2.6 nM.

And the viability at 0.195 µmol (K-562; K-562, 0.195 umol)?
The viability at 0.195 µmol was 80.8%.

And the cytotoxicity at 0.195 µmol (K-562; K-562, 0.195 umol, read-out: Toxicity %)?
The cytotoxicity at 0.195 µmol was 19.2%.

What about the viability at 0.391 µmol (K-562; K-562, 0.391 umol) of the same compound?
The viability at 0.391 µmol was 60.1%.

And the cytotoxicity at 0.391 µmol (K-562; K-562, 0.391 umol, read-out: Toxicity %)?
Its cytotoxicity at 0.391 µmol is 39.9%.

And the viability at 0.781 µmol (K-562; K-562, 0.781 umol)?
The viability at 0.781 µmol was 34.4%.

And the cytotoxicity at 0.781 µmol (K-562; K-562, 0.781 umol, read-out: Toxicity %)?
The cytotoxicity at 0.781 µmol was 65.6%.

What about the viability at 1.563 µmol (K-562; K-562, 1.563 umol) of the same compound?
Its viability at 1.563 µmol is 19.5%.

What about the cytotoxicity at 1.563 µmol (K-562; K-562, 1.563 umol, read-out: Toxicity %) of the same compound?
The cytotoxicity at 1.563 µmol was 80.5%.

What about the viability at 3.125 µmol (K-562; K-562, 3.125 umol) of the same compound?
Its viability at 3.125 µmol is 13%.

What about the cytotoxicity at 3.125 µmol (K-562; K-562, 3.125 umol, read-out: Toxicity %) of the same compound?
Its cytotoxicity at 3.125 µmol is 87%.

And the viability at 6.25 µmol (K-562; K-562, 6.25 umol)?
The viability at 6.25 µmol was 9.89%.

What about the cytotoxicity at 6.25 µmol (K-562; K-562, 6.25 umol, read-out: Toxicity %) of the same compound?
Its cytotoxicity at 6.25 µmol is 90.1%.

What about the viability at 12.5 µmol (K-562; K-562, 12.5 umol) of the same compound?
The viability at 12.5 µmol was 8.25%.

What about the cytotoxicity at 12.5 µmol (K-562; K-562, 12.5 umol, read-out: Toxicity %) of the same compound?
Its cytotoxicity at 12.5 µmol is 91.7%.

What about the viability at 25 µmol (K-562; K-562, 25 umol) of the same compound?
The viability at 25 µmol was 6.53%.

And the cytotoxicity at 25 µmol (K-562; K-562, 25 umol, read-out: Toxicity %)?
Its cytotoxicity at 25 µmol is 93.5%.

What about the IC50 (K-562; MTT, K-562, read-out: Cytotoxicity against cancer cells IC50 K-562) of the same compound?
The IC50 was 544.4 ± 3.2 nM.

What about the “IL-6R ± SE” value (IL-6R; HepG-2, at IC50 concentrations, control 44.10) of the same compound?
The value was 14.73 ± 1.06 ng/L.

What about the IL-6R protein level (IL-6R; HepG-2, control 44.10%) of the same compound?
The IL-6R protein level was 14.73 ng/L.

What about the “IL-6 ±SE” value (IL-6R; raw data, HepG2, control 44.10) of the same compound?
The value was 16.64 ng/L.

What about the “Caspase-3 ± SE” value (caspase-3) of the same compound?
The value was 1.25 ± 0.090 ng/mL.

And the “Caspase-3 ± SE” value (caspase-3; listed as R1)?
Its value is 1.25 ng/mL.

And the “caspase-3 expression level, fold increase” value (caspase-3; HepG-2, vs control cells)?
The value was 2.72 fold.
